According to patent publication US8158575B2, “Agent for the prevention and treatment of sexually transmitted diseases-I” (priority 2001, dated 2012):
Where “and” joins values, the source holds several entries; their conditions need not be identical. Equal values may be shown once.

Legend:
HeLa CD4 LTR […]-gal cells = assay: XTT toxicity on sister plate of the attachment assay; type: cell-based
Protocol: This assay is designed to detect compounds that interact with the cell and block virus attachment, and/or compounds which interact with the forming attachment/fusion complex. The attachment assay is performed with HeLa CD4 LTR […]-gal cells. HeLa CD4 LTR […]-gal cells are routinely cultured with the required selection antibiotics. Twenty-four h prior to initiation of the assay the cells are trypsinized, counted and 1×10^4 cells placed in a 0.2 cm well in media without selection antibiotics. At 24 h media is removed and compound in media placed on the cells and incubated for 15 min at 37° C. A known titer of the IIIB strain of HIV is then added to the wells and the incubation continued for 1 h. At the end of the incubation the wells are washed 3 times with media and the culture continued for 40 to 48 h. At termination of the assay, media is removed and […]-galactosidase enzyme expression determined by chemiluminescence per manufacturers instructions (Tropix Gal-screen™, Bedford Mass.) by a single step chemiluminescent method using a single solution to lyse the cells and detect […]-galactosidase enzyme activity. Compound toxicity is monitored on a sister plate by XTT dye reduction. […] The virus adsorption interval of 1 h is sufficiently short that AZT, which requires phosphorylation to its active tri-phosphate form (AZT-TTP), is not active in this assay.

IIIB strain of HIV = type: cell-based, HIV-1; settings: HeLa CD4 LTR […]-gal cells
Protocol: At 24 h media is removed and compound in media placed on the cells and incubated for 15 min at 37° C.

HSV-2 = assay: Genital HSV prevention test in the mouse model; type: in vivo
Protocol: The efficacy of SPL-7013 was tested in a genital HSV prevention test in the mouse (strain MS) model. A dose of 15 μl of 100 mg/ml, or 10 mg/ml of the compound was instilled into the vagina of 16 animals 20 sec before HSV-2 infection. […] Total mortality in three days of the same number of control infected mice was used as an end-point of the tests.

[1] = system: human papillomavirus type 6b VLPs; assay: Inhibition of uptake of HPV virus-like particles into A431 cells (flow cytometry); type: cell-based
Protocol: The compound was evaluated for its ability to inhibit the binding and uptake of human papillomavirus virus-like particles to a human epithelial cell line.
The compound was tested at a range of six dilutions as inhibitor of binding and of uptake of Papillomavirus fluorochrome-tagged Virus-Like-Particles (VLPs) of human papillomavirus type 6b. […] Assay of binding and uptake was determined using flow cytometry and inhibition of binding was reported as a percentage with respect to the binding observed in the absence of inhibitor. The tests were performed in two independent assays
Cells. The human epidermoid carcinoma cell line A431 was purchased from the American Type Culture Collection at passage 30 (CRL-1555, Batch F-13530) and maintained in DMEM in 10% FCS.
Human papillomavirus type 6b VLPs were grown and purified according to standard operating procedures. Particles were labelled with a fluorochrome.
The compound was re-dissolved in sterile water to the concentrations of 5 mM and used fresh for the first assay before being frozen at −20° C. It was then thawed for the second assay.
A T75 flask of A431 cells was washed with 10 ml of PBS/EDTA (0.05%) for 5 minutes at 37° C. before being treated with 2 ml trypsin for a further 5 minutes at 37° C. […]
Results were analysed using WinLisT. […]

[2] = target: T1, cell-to-cell fusion mediated by HIV-1 Env and CD4 (Human immunodeficiency virus type 1 group M subtype B, UniProt P04578); type: cell-based; settings: TC50/IC50
T1 construct: expressed in transfected cells; host or cells: HeLa CD4 LTR beta-gal cells (CD4) co-cultured with HL2/3 cells (HIV-1 Env)
Protocol: The fusion assay assesses the ability of compounds to block cell-to-cell fusion mediated by HIV-1 Env and CD4 expressed on separate cells. This assay is sensitive to inhibitors of both the gp120/CD4 interaction and inhibitors of the X4 coreceptor. First, 5×10^3 HeLa CD4 LTR […]-gal cells are placed in microtiter wells and incubated overnight. The following day the media is removed and the HeLa CD4 LTR […]-gal cells are incubated for 1 h at 37° C. in fresh media with test compound. Following the incubation 5×10^3 HL2/3 cells are added and the incubation continued for 40 to 48 h. At 40 to 48 h […]-galactosidase enzyme expression is detected by chemiluminescence (Tropix Gal-screen™, Tropix, Bedford, Mass.). Compound toxicity is monitored on a sister plate using XTT dye reduction.

[3] = system: viral strains of Herpes virus-2 resistant to modified nucleoside based antiviral agents; settings: cell tests
[4] = 100 mg/ml intravaginal, 20 sec. prior to infection

Substance: BHAlyslys2lys4lys8lys16[NH—CO—CH2)O-3,6-Naphthyl-(SO3Na)2]32 [SPL-7013]
- Attachment Assay TC50 (HeLa CD4 LTR […]-gal cells): >100 µg/mL
- Attachment Assay IC50 (IIIB strain of HIV): 0.57 µg/ml
- Animals Protected Against Infection (%) (HSV-2; 10 mg/ml intravaginal, 20 sec. prior to infection): 10/12 (83%)
- Animals Protected Against Disease (%) (HSV-2; [4]): 11/11 (100%) and 12/12 (100%)
- Animals Protected Against Infection (%) (HSV-2; [4]): 11/11 (100% and 12/12 (100%
- Prevention of HSV-2 infection and disease (in words) (HSV-2; 15 μl of 100 mg/ml or 10 mg/ml intravaginal 20 sec before HSV-2 infection): prevented infection and disease in all animals tested
- Uptake of VLPs at maximal inhibition (% of VLPs alone) ([1]; 1 μM, HPV 6b VLPs): 26%
- Uptake inhibition (in words) ([1]; at 1 μM and 10 nM): shown uptake inhibition
- Fusion Assay TI [2]: >141
- Activity against resistant Herpes virus-2 strains (in words) [3]: shown activity
